Data: publication PMC3433420 (PLoS ONE, 2012)
Non-standard residues stand in square brackets, D forms with d. Residues, ends and D or L forms follow the SMILES beside them. No end group written: not given here. pY = N[C@@H](Cc1ccc(OP(=O)(O)O)cc1)C(=O)O

Key:
[1] = target: PIK3R2-NC tandem SH2 domains (Homo sapiens, UniProt O00459); assay: FP saturation binding assay
RASA1-N SH2 domain = target: T1, RASA1-N SH2 domain (Homo sapiens, UniProt P20936); assay: FP saturation binding assay
T1 sequence (P20936 181-272 limits assumed): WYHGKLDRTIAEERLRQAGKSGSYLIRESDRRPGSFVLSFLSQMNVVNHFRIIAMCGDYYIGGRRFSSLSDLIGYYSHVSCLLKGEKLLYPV

SH2 and PTB domains = assay: Sum of relative binding free energies (ΔΔG) from FP KDs, relative to 20 µM threshold; parameters: species or system human;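 unit kcal/mol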; conditions: summed over the receptor's phosphopeptides
Experimental: In order to further define and classify commonalities and differences among the ErbB family, the relative binding free energy (FE) of each SH2 domain was summed across all phosphosites on each receptor relative to the assay detection threshold of 20 µM according to Equation (3): [drawing 10] (3)

Sequence of PIK3R2-NC tandem SH2 domains (O00459 330-716 limits assumed): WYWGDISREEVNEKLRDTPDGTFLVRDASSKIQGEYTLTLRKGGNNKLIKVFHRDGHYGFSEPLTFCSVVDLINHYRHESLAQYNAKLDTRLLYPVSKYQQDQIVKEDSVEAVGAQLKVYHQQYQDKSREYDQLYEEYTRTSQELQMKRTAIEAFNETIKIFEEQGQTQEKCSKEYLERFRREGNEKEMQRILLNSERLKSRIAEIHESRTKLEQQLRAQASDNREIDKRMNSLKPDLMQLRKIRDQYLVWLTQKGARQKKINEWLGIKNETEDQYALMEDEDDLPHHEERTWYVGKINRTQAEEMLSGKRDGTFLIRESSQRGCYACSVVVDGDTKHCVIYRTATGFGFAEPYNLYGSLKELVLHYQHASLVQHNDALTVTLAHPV

Compound: CSCC[C@H](NC(=O)[C@H](Cc1ccc(OP(=O)(O)O)cc1)NC(=O)[C@H](CCC(=O)O)NC(=O)[C@H](Cc1ccc(O)cc1)NC(=O)[C@H](CC(=O)O)NC(=O)[C@@H](N)CCC(=O)O)C(=O)N[C@@H](CC(N)=O)C(=O)N[C@@H](CCCNC(=N)N)C(=O)N[C@@H](CCC(N)=O)C(=O)N[C@@H](CCCNC(=N)N)C(=O)N[C@@H](CC(=O)O)C(=O)NCC(=O)N[C@@H](CC(=O)O)C(=O)O [ErbB3 1262 13-mer] (HELM PEPTIDE1{E.D.Y.E.[O=C([C@H](Cc1ccc(OP(=O)(O)O)cc1)N[*:1])[*:2]].M.N.R.Q.R.D.G.D}$$$$V2.0)
- Kd [1]: 18.1 µM
- Kd (RASA1-N SH2 domain): 9.06 µM

Compound: CC(C)C[C@H](NC(=O)[C@H](CCCNC(=N)N)NC(=O)[C@H](C)NC(=O)[C@H](Cc1ccc(OP(=O)(O)O)cc1)NC(=O)[C@H](Cc1c[nH]cn1)NC(=O)[C@@H](NC(=O)[C@H](Cc1c[nH]cn1)NC(=O)[C@@H]1CCCN1)C(C)C)C(=O)N[C@@H](CCCCN)C(=O)N[C@H](C(=O)N[C@@H](CC(C)C)C(=O)N[C@@H](CCCNC(=N)N)C(=O)N[C@@H](CC(=O)O)C(=O)O)[C@@H](C)O [ErbB3pY1307] (HELM PEPTIDE1{P.H.V.H.[O=C([C@H](Cc1ccc(OP(=O)(O)O)cc1)N[*:1])[*:2]].A.R.L.K.T.L.R.D}$$$$V2.0)
- Kd (RASA1-N SH2 domain): 1.88 µM

Compound: ErbB3 (SEQG[pY]EEMRAFQD)
- Sum free energies (ΔΔG) (SH2 and PTB domains; domain ABL1): 0.48
- Sum free energies (ΔΔG) (SH2 and PTB domains; domain ABL2): 1.81
- Sum free energies (ΔΔG) (SH2 and PTB domains; domain BCAR3): 1.81
- Sum free energies (ΔΔG) (SH2 and PTB domains; domain BLK): 4.66
- Sum free energies (ΔΔG) (SH2 and PTB domains; domain BLNK): 1.99
- Sum free energies (ΔΔG) (SH2 and PTB domains; domain BMX): 0.00
- Sum free energies (ΔΔG) (SH2 and PTB domains; domain BTK): 0.53
- Sum free energies (ΔΔG) (SH2 and PTB domains; domain CRK): 2.18
- Sum free energies (ΔΔG) (SH2 and PTB domains; domain CRKL): 0.00
- Sum free energies (ΔΔG) (SH2 and PTB domains; domain DAPP1): 0.00
- Sum free energies (ΔΔG) (SH2 and PTB domains; domain FER): 1.84
- Sum free energies (ΔΔG) (SH2 and PTB domains; domain FES): 2.60
- Sum free energies (ΔΔG) (SH2 and PTB domains; domain FGR): 2.50
- Sum free energies (ΔΔG) (SH2 and PTB domains; domain GRAP2): 0.40
- Sum free energies (ΔΔG) (SH2 and PTB domains; domain GRB2): 0.00
- Sum free energies (ΔΔG) (SH2 and PTB domains; domain GRB7): 8.74
- Sum free energies (ΔΔG) (SH2 and PTB domains; domain GRB10): 0.00
- Sum free energies (ΔΔG) (SH2 and PTB domains; domain GRB14): 0.00
- Sum free energies (ΔΔG) (SH2 and PTB domains; domain HCK): 5.34
- Sum free energies (ΔΔG) (SH2 and PTB domains; domain HSH2D): 2.34
- Sum free energies (ΔΔG) (SH2 and PTB domains; domain INPPL1): 1.51
- Sum free energies (ΔΔG) (SH2 and PTB domains; domain ITK): 1.44
- Sum free energies (ΔΔG) (SH2 and PTB domains; domain LCK): 9.34
- Sum free energies (ΔΔG) (SH2 and PTB domains; domain LCP2): 1.08
- Sum free energies (ΔΔG) (SH2 and PTB domains; domain LYN): 6.66
- Sum free energies (ΔΔG) (SH2 and PTB domains; domain MATK): 2.34
- Sum free energies (ΔΔG) (SH2 and PTB domains; domain NCK1): 1.97
- Sum free energies (ΔΔG) (SH2 and PTB domains; domain NCK2): 2.78
- Sum free energies (ΔΔG) (SH2 and PTB domains; domain PIK3R1-C): 15.79
- Sum free energies (ΔΔG) (SH2 and PTB domains; domain PIK3R1-N): 15.42
- Sum free energies (ΔΔG) (SH2 and PTB domains; domain PIK3R1-NC): 18.21
- Sum free energies (ΔΔG) (SH2 and PTB domains; domain PIK3R2-C): 4.66
- Sum free energies (ΔΔG) (SH2 and PTB domains; domain PIK3R2-N): 15.58
- Sum free energies (ΔΔG) (SH2 and PTB domains; domain PIK3R2-NC): 17.40
- Sum free energies (ΔΔG) (SH2 and PTB domains; domain PIK3R3-C): 14.57
- Sum free energies (ΔΔG) (SH2 and PTB domains; domain PIK3R3-N): 18.45
- Sum free energies (ΔΔG) (SH2 and PTB domains; domain PIK3R3-NC): 23.70
- Sum free energies (ΔΔG) (SH2 and PTB domains; domain PLCG1-C): 12.45
- Sum free energies (ΔΔG) (SH2 and PTB domains; domain PLCG1-N): 2.23
- Sum free energies (ΔΔG) (SH2 and PTB domains; domain PLCG1-NC): 12.83
- Sum free energies (ΔΔG) (SH2 and PTB domains; domain PLCG2-N): 0.60
- Sum free energies (ΔΔG) (SH2 and PTB domains; domain PLCG2-NC): 3.76
- Sum free energies (ΔΔG) (SH2 and PTB domains; domain PTK6): 7.16
- Sum free energies (ΔΔG) (SH2 and PTB domains; domain PTPN6-C): 0.00
- Sum free energies (ΔΔG) (SH2 and PTB domains; domain PTPN6-NC): 0.00
- Sum free energies (ΔΔG) (SH2 and PTB domains; domain PTPN11-C): 0.00
- Sum free energies (ΔΔG) (SH2 and PTB domains; domain PTPN11-N): 4.57
- Sum free energies (ΔΔG) (SH2 and PTB domains; domain PTPN11-NC): 4.70
- Sum free energies (ΔΔG) (SH2 and PTB domains; domain RASA1-C): 0.68
- Sum free energies (ΔΔG) (SH2 and PTB domains; domain RASA1-N): 11.64
- Sum free energies (ΔΔG) (SH2 and PTB domains; domain RASA1-NC): 10.86
- Sum free energies (ΔΔG) (SH2 and PTB domains; domain SH2B2): 0.53
- Sum free energies (ΔΔG) (SH2 and PTB domains; domain SH2B3): 5.05
- Sum free energies (ΔΔG) (SH2 and PTB domains; domain SH2B): 1.60
- Sum free energies (ΔΔG) (SH2 and PTB domains; domain SH2D1A): 6.64
- Sum free energies (ΔΔG) (SH2 and PTB domains; domain SH2D1B): 6.98
- Sum free energies (ΔΔG) (SH2 and PTB domains; domain SH2D2A): 10.39
- Sum free energies (ΔΔG) (SH2 and PTB domains; domain SH2D3A): 0.00
- Sum free energies (ΔΔG) (SH2 and PTB domains; domain SH2D3C): 5.13
- Sum free energies (ΔΔG) (SH2 and PTB domains; domain SH3BP2): 1.31
- Sum free energies (ΔΔG) (SH2 and PTB domains; domain SHB): 1.08
- Sum free energies (ΔΔG) (SH2 and PTB domains; domain SHC1-PTB): 8.01
- Sum free energies (ΔΔG) (SH2 and PTB domains; domain SHC1): 3.41
- Sum free energies (ΔΔG) (SH2 and PTB domains; domain SHC2-PTB): 4.78
- Sum free energies (ΔΔG) (SH2 and PTB domains; domain SHC3): 0.95
- Sum free energies (ΔΔG) (SH2 and PTB domains; domain SHC4): 1.50
- Sum free energies (ΔΔG) (SH2 and PTB domains; domain SHD): 1.64
- Sum free energies (ΔΔG) (SH2 and PTB domains; domain SHE): 0.00
- Sum free energies (ΔΔG) (SH2 and PTB domains; domain SHF): 0.00
- Sum free energies (ΔΔG) (SH2 and PTB domains; domain SLA2): 4.59
- Sum free energies (ΔΔG) (SH2 and PTB domains; domain SLA): 0.46
- Sum free energies (ΔΔG) (SH2 and PTB domains; domain SOCS1): 0.00
- Sum free energies (ΔΔG) (SH2 and PTB domains; domain SOCS2): 2.96
- Sum free energies (ΔΔG) (SH2 and PTB domains; domain SOCS3): 4.06
- Sum free energies (ΔΔG) (SH2 and PTB domains; domain SOCS5): 6.74
- Sum free energies (ΔΔG) (SH2 and PTB domains; domain SOCS6): 6.61
- Sum free energies (ΔΔG) (SH2 and PTB domains; domain SRC): 9.70
- Sum free energies (ΔΔG) (SH2 and PTB domains; domain STAP1): 1.44
- Sum free energies (ΔΔG) (SH2 and PTB domains; domain SUPT6H): 0.00
- Sum free energies (ΔΔG) (SH2 and PTB domains; domain SYK-C): 0.00
- Sum free energies (ΔΔG) (SH2 and PTB domains; domain SYK-N): 0.00
- Sum free energies (ΔΔG) (SH2 and PTB domains; domain SYK-NC): 2.08
- Sum free energies (ΔΔG) (SH2 and PTB domains; domain TEC): 0.70
- Sum free energies (ΔΔG) (SH2 and PTB domains; domain TENC1): 3.35
- Sum free energies (ΔΔG) (SH2 and PTB domains; domain TNS1): 3.92
- Sum free energies (ΔΔG) (SH2 and PTB domains; domain TNS3): 4.07
- Sum free energies (ΔΔG) (SH2 and PTB domains; domain TNS4): 0.67
- Sum free energies (ΔΔG) (SH2 and PTB domains; domain TXK): 1.88
- Sum free energies (ΔΔG) (SH2 and PTB domains; domain VAV1): 2.95
- Sum free energies (ΔΔG) (SH2 and PTB domains; domain VAV2): 5.08
- Sum free energies (ΔΔG) (SH2 and PTB domains; domain VAV3): 5.15
- Sum free energies (ΔΔG) (SH2 and PTB domains; domain YES1): 10.32
- Sum free energies (ΔΔG) (SH2 and PTB domains; domain ZAP70-C): 0.57
- Sum free energies (ΔΔG) (SH2 and PTB domains; domain ZAP70-N): 0.00
- Sum free energies (ΔΔG) (SH2 and PTB domains; domain ZAP70-NC): 6.20

Compound: FDNLYYWDQDPPD [ErbB2 Y1221 (non-phospho)]
- Kd (RASA1-N SH2 domain): 3.69 µM
